According to US20260216361A1, “NANOBODY-DRUG CONJUGATES AND METHODS OF PREPARING THEREOF” (Vanderbilt University, priority 2022, published 2026):
Read-outs that look alike come from different tables or passages of the source.

Tests used:
[1] = Pharmacokinetics of Cy5 dye and nanobody-Cy5 conjugates in healthy mice; format: in vivo, mouse; conditions: 2 mg/kg I.V., healthy female C57BL/6 mice
Procedure: Pharmacokinetics and Ex Vivo Imaging Experiments. Healthy (Balb/c or C57BL/6) and EMT6 tumor bearing (Balb/c) mice were injected with 100 μL of Cy5 (either as free dye or as a nanobody conjugate) at a dose of 2 mg/kg intravenously. Blood draws were taken using heparinized capillary tubes (DWK Life Sciences) at discrete time points up to five days after injection. 1 μL of blood was mixed with 50 μL of PBS, centrifuged, and the diluted plasma was collected for analysis. Prescence of Cy5 was determined by fluorescence intensity using a plate reader, with an excitation wavelength of 645 nm and an emission wavelength of 675 nm. Pharmacokinetic analysis was performed in GraphPad Prism (V10) using either a one-phase decay or two-phase decay, in which the reported half-life is the second phase (elimination). Biodistribution studies were performed by excising and weighing hearts, lungs, livers, spleens, kidneys, and tumors. Tissue were washed in 1× PBS and transferred to the stage of the IVIS Lumina Ill (PerkinElmer). Fluorescence (radiant efficiency) was measured with a maximum value of 1.56×10^10, and a minimum of 8.21×10^8, and areas were drawn for organs to generate average radiant efficiency values (per cm^2) using the Living Image software (version 4.5). […] Images were taken on the IVIS and luminescence was quantified as total radiant flux (p/s) for each set of lungs.

EMT6 tumors = assay: Orthotopic EMT6 breast tumor model; format: in vivo, mouse; conditions: nanobody carriers I.V. 1.25 μg agonist; ICB 100 μg intraperitoneally; Balb/c
Procedure: Evaluation of Nanobodies in Tumor Models. 6-8-week C57BL/6 mice (The Jackson Laboratory) were inoculated with B16.F10, B16.F10-LUC, or B16.F10-OVA models. For EMT6 models, 6-8 week Balb/C female mice (The Jackson Laboratory) were used. Tumors were generated in B16.F10 and B16.F10-OVA models by subcutaneous injection of 5×10^5 cancer cells, suspended in 100 μL of PBS, at the right flank side of the mouse. B16.F10-LUC inoculations were performed by intravenous (I.V.) injection at a volume of 100 μL and using 1×10^6 cancer cells. EMT6 inoculations were orthotopic and placed at the left-side 4th mammary fat pad at a volume of 100 μL and using […]. When the volume of tumors reached ~75-100 mm^3, mice were treated by I.V. injection of nanobodies or free diABZT compound 3 (using 40% PEG400 as an excipient for free diABZI, Sigma), or intraperitoneal (I.P) injection of commercial anti-PD-L1 IgG (Clone BEO101, Bio X Cell) (100 μL per injection). Tumor volume calculations were calculated using Vtumor=L×W2×0.5, in which Vtumor is tumor volume, L is tumor length, and W is tumor width. Tumor volume, total murine mass, and murine well-being were recorded for the duration of the study. The endpoint for maximum tumor volume (i.e. survival) during studies was 1500 mm^3.

[2] = cited from earlier work

## CC1(C)C(/C=C/C=C/C=C2/N(CCCCCC(=O)NCCC(=O)N3Cc4ccccc4C#Cc4ccccc43)c3ccc(S(=O)(=O)O)cc3C2(C)C)=[N+](CCCS(=O)(=O)[O-])c2ccc(S(=O)(=O)O)cc21 [DBCO-Cy5, reference compound]
[1]
  elimination half-life: approximately 5 minutes

## CCn1nc(C)cc1C(=O)Nc1nc2cc(C(N)=O)cc(OC)c2n1C/C=C/Cn1c(NC(=O)c2cc(C)nn2CC)nc2cc(C(N)=O)cc(OCCCN3CCOCC3)c21 [diABZI, reference compound]
EMT6 tumors
  tumor growth: did not confer a therapeutic benefit
[2]; in vivo
  half-life: ~ 90 minutes

## serum albumin
[2]; in mice
  half-life: 35 to 40 h
